Data from patent US20240335452A1, “COMPOSITIONS AND METHODS OF COMBINATION THERAPY FOR TARGETING LYMPHOMA” (Cullgen (Shanghai), Inc., priority 2021, published 2024).
Entries after “also recorded” stand apart in the source; their conditions may differ.

What was measured:
SU-DHL-10 cells [1] = assay: Cell viability assay (CellTiter-Glo) in SU-DHL-10 cells; format: cell-based, human
SU-DHL-10 cells [2] = assay: as above; format: cell-based, human; conditions: for cell viability, response of the cells to the single agent: SU-DHL-10, single agent, 5 days
Procedure: (§1) Experiments were performed in cultured human cells to assess the efficacy of combined EZH2 inhibitor and immunomodulatory drug (e.g., an IMiD) treatment using an EZH2-mutant DLBCL cell line, SU-DHL-10, and an EZH2-wild type line, OCI-LY7. Cells were purchased from Nanjing Cobioer Biotechnology. SU-DHL-10 and OCI-LY7 cells were cultured at 37° C. with 5% CO2 in RPMI 1640 Medium supplemented with 10% fetal bovine serum. Cells were authenticated using the short tandem repeat (STR) assays. Mycoplasma test results were negative.
(§2) The cultured cells were seeded at a density of 5000 cells per well in 96-well assay plates and treated with test compounds at 10 μM followed by a 11-point 3-fold serial dilution or an 8-point 10-fold serial dilution. Cell viability was determined after 5 days, using the CellTiter-Glo assay kit (Promega) according to the manufacturer's instructions. The dose-response curves were determined and IC50 values were calculated using the GraphPad Prism software following a nonlinear regression (least squares fit) method. Each data point in the figure represents the mean values of at least two technical replicates ± standard deviation.
(§3) Cells were treated with EZH2 inhibitors in the presence of IMiDs at concentrations sufficient to induce degradation of IKZF1 and IKZF3 but not enough to kill cells. CC-122 and CC-220 were tested at a concentration of 1 μM; CC-92480 and CFT7455 were tested at a concentration of 1 nM; and CC-99282 was tested at a concentration of 10 nM.

OCI-LY7 cells = assay: Cell viability assay (CellTiter-Glo) in OCI-LY7 cells; format: cell-based, human; conditions: for cell viability, response of the cells to the single agent: OCI-LY7, single agent, 5 days
Procedure: as §1, §2, §3

IKZF1 or IKZF3 = conditions: more potent than older IMiDs; stated as 'may be'; cited from earlier work
[3] = SU-DHL-10, in the presence of 100 nM CPI-0209
[4] = SU-DHL-10, in the presence of 100 nM SHR2554
[5] = OCI-LY7, in the presence of 100 nM CPI-0209
[6] = OCI-LY7, in the presence of 100 nM SHR2554

## O=C1CC[C@H](N2C(=O)c3cccc4c(Cc5ccc(CN6CCOCC6)cc5)ccc2c34)C(=O)N1 [CFT7455, (S)-3-(6-(4-(morpholinomethyl)benzyl)-2-oxobenzo[cd]indol-1(2H)-yl)piperidine-2,6-dione]
SU-DHL-10 cells [1]; [3]
  cell viability (sensitivity of the cells to the compound in combination): lowered cell viability more than treatment with CFT7455 alone
SU-DHL-10 cells [1]; [4]
  cell viability (sensitivity of the cells to the compound in combination): lowered cell viability more than treatment with CFT7455 alone
SU-DHL-10 cells [2]
  cell viability, response of the cells to the single agent: moderately responsive
OCI-LY7 cells; [5]
  cell viability (sensitivity of the cells to the compound in combination): lowered cell viability more than treatment with CFT7455 alone
OCI-LY7 cells; [6]
  cell viability (sensitivity of the cells to the compound in combination): lowered cell viability more than treatment with CFT7455 alone
OCI-LY7 cells
  cell viability, response of the cells to the single agent: moderately responsive

## O=C1CC[C@H](N2C(=O)c3cccc(NCc4ccc(CN5CC(N6CCOCC6)C5)cc4F)c3C2=O)C(=O)N1 [CC-99282, (S)-2-(2,6-dioxopiperidin-3-yl)-4-((2-fluoro-4-((3-morpholinoazetidin-1-yl)methyl)benzyl)amino)isoindoline-1,3-dione]
SU-DHL-10 cells [1]; [3]
  cell viability (sensitivity of the cells to the compound in combination): lowered cell viability more than treatment with CC-99282 alone
SU-DHL-10 cells [1]; [4]
  cell viability (sensitivity of the cells to the compound in combination): lowered cell viability more than treatment with CC-99282 alone
SU-DHL-10 cells [2]
  cell viability, response of the cells to the single agent: moderately responsive
OCI-LY7 cells; [5]
  cell viability (sensitivity of the cells to the compound in combination): lowered cell viability more than treatment with CC-99282 alone
OCI-LY7 cells; [6]
  cell viability (sensitivity of the cells to the compound in combination): lowered cell viability more than treatment with CC-99282 alone
OCI-LY7 cells
  cell viability, response of the cells to the single agent: moderately responsive

## N#Cc1ccc(N2CCN(Cc3ccc(COc4cccc5c4CN([C@H]4CCC(=O)NC4=O)C5=O)cc3)CC2)c(F)c1 [CC-92480, mezigdomide]
IKZF1 or IKZF3
  potency with regard to IKZF1 or IKZF3 degradation relative to older IMiDs: 1000 fold

## COC1CN(C2CCC([C@@]3(C)Oc4c(Cl)cc(C(=O)NCc5c(SC)cc(C)[nH]c5=O)c(C)c4O3)CC2)C1 (stereo partly drawn) [CPI-0209, (2R)-7-chloro-2-(4-(3-methoxyazetidin-1-yl)cyclohexyl)-2,4-dimethyl-N-((6-methyl-4-(methylthio)-2-oxo-1,2-dihydropyridin-3-yl)methyl)benzo[d][1,3]dioxole-5-carboxamide]
SU-DHL-10 cells [2]; SU-DHL-10, in the presence of 1 nM CFT7455, 5 days
  cell viability (sensitivity of the cells to the compound in combination): highly sensitive; also recorded: lowered cell viability more than treatment with CPI-0209 alone
SU-DHL-10 cells [2]; SU-DHL-10, in the presence of 10 nM CC-99282, 5 days
  cell viability (sensitivity of the cells to the compound in combination): highly sensitive; also recorded: lowered cell viability more than treatment with CPI-0209 alone
SU-DHL-10 cells [2]
  cell viability, response of the cells to the single agent: moderately responsive
OCI-LY7 cells; OCI-LY7, in the presence of 1 nM CFT7455, 5 days
  cell viability (sensitivity of the cells to the compound in combination): highly sensitive; also recorded: lowered cell viability more than treatment with CPI-0209 alone
OCI-LY7 cells; OCI-LY7, in the presence of 10 nM CC-99282, 5 days
  cell viability (sensitivity of the cells to the compound in combination): highly sensitive; also recorded: lowered cell viability more than treatment with CPI-0209 alone
OCI-LY7 cells
  cell viability, response of the cells to the single agent: modestly responsive

## COc1cc(C)[nH]c(=O)c1CNC(=O)c1c(C)n([C@H](C)C2CCN(CC(F)(F)F)CC2)c2ccccc12 [CPI-1205, lirametostat]
SU-DHL-10 cells [2]; SU-DHL-10, in the presence of 1 nM CC-92480, 5 days
  cell viability (sensitivity of the cells to the compound in combination): highly sensitive; also recorded: lowered cell viability more than treatment with CPI-1205 alone
SU-DHL-10 cells [2]; SU-DHL-10, in the presence of 1 μM CC-122, 5 days
  cell viability (sensitivity of the cells to the compound in combination): highly sensitive; also recorded: lowered cell viability more than treatment with CPI-1205 alone
SU-DHL-10 cells [2]; SU-DHL-10, in the presence of 1 μM CC-220, 5 days
  cell viability (sensitivity of the cells to the compound in combination): highly sensitive; also recorded: lowered cell viability more than treatment with CPI-1205 alone
OCI-LY7 cells; OCI-LY7, in the presence of 1 nM CC-92480, 5 days
  cell viability (sensitivity of the cells to the compound in combination): highly sensitive; also recorded: lowered cell viability more than treatment with CPI-1205 alone
OCI-LY7 cells; OCI-LY7, in the presence of 1 μM CC-122, 5 days
  cell viability (sensitivity of the cells to the compound in combination): highly sensitive; also recorded: lowered cell viability more than treatment with CPI-1205 alone
OCI-LY7 cells; OCI-LY7, in the presence of 1 μM CC-220, 5 days
  cell viability (sensitivity of the cells to the compound in combination): highly sensitive; also recorded: lowered cell viability more than treatment with CPI-1205 alone
